Laboratory results: patent publication US6573230B1, “Liquid cleaning composition containing an effective biodegradable chelating agent” (Colgate-Palmolive Company, priority 2002, dated 2003)

Assays:
[1] = Ready biodegradability of the sequestering agent; conditions: sequestering agent of the composition: A EDDS, B gluconic acid, C IDS Na, D EDTA
[2] = pH / physical stability on ageing; assay type: physicochemical; conditions: stable pH and absence of discoloration

SMILES | Biodegradability of sequestering agent (ready biodegradability) [1] | pH Physical stability on ageing [2]
O=C(O)C[C@H](NCCN[C@@H](CC(=O)O)C(=O)O)C(=O)O [EDDS, trisodium ethylene diamine-N,N-disuccinate] | biodegradable | imparting product physical stability
O=C(O)CN(CCN(CC(=O)O)CC(=O)O)CC(=O)O [EDTA, ethylene diamine tetraacetate] | non-ready biodegradable | –
